Reference: PubChem BioAssay (NCI)
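Protocol summary: plate cells (96-well), add compound at 5 concentrations, incubate 48 h, interpolate endpoints linearly. GI50 is the concentration that inhibits growth by half. TGI marks complete inhibition of growth.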

Tests used:
Experiment in all cases: NCI anticancer screen, dose series, 48 h
[1] = test system: COLO 205 colon
[2] = test system: SF-268 CNS
[3] = test system: A498 renal
[4] = test system: OVCAR-4 ovarian
[5] = test system: EKVX NSCLC
[6] = test system: LOX IMVI melanoma
[7] = test system: MDA-MB-231 breast
[8] = test system: T-47D breast
[9] = test system: NCI-H522 lung
[10] = test system: OVCAR-8 ovarian

SMILES	TGI [1] [µM]	TGI [2] [µM]	TGI [3] [µM]	TGI [4] [µM]	TGI [5] [µM]	TGI [6] [µM]	GI50 [7] [µM]	TGI [7] [µM]	GI50 [8] [µM]	TGI [8] [µM]	GI50 [9] [µM]	TGI [9] [µM]	GI50 [1] [µM]	GI50 [2] [µM]	GI50 [10] [µM]	TGI [10] [µM]	GI50 [5] [µM]	GI50 [6] [µM]	GI50 [3] [µM]	GI50 [4] [µM]
CC(C)=CC(=O)Cc1nc2ccccc2[nH]c1=O	> 100	> 100	> 100	> 100	> 100	> 100														
N#Cc1nc(-c2cccc(Br)c2)cc(-c2ccc(Nc3nc(N4CCCCC4)nc(N4CCCCC4)n3)cc2)c1N	4.64	21.5			5.02	3.01	1.56	3.21	1.3	4.08	1.78	4.72	1.99	3.27	2.66	> 100	2.12	1.62		
O=S(=O)(O)C(F)(F)C(F)(F)C(F)(F)C(F)(F)F	> 100	> 100	> 100	> 100	> 100	> 100										> 100				
CCN=C1NN=C(c2ccccc2)c2cc(Cl)ccc2N1	35.4	91.1	90	> 100	92.7	36.7						30.2				69.4				
CCNC(=O)C(O)C1(O)CCC2[C@@H]3CCC4=CC(=O)C=C[C@]4(C)C3[C@@H](O)C[C@@]21C (some centres undefined)	> 100	> 79.9		> 100	> 100	> 100						> 100				> 100				
CCCCCCn1c(-c2ccc(C(=O)O/N=C(\N)c3ccc(OC)cc3)cc2)nc(-c2ccccc2)c1-c1ccccc1					3.38	0.341	1.61	3.69	1.94	4.89	1.74	3.72			2.21	6.47	1.7	0.186		
COc1ccc(-c2ccc(/C=N/n3cn[nH]c3=S)o2)c([N+](=O)[O-])c1	> 100	> 100	10.3	> 100	> 100				51.8	> 100	40.2	> 100	45.6	29.1	38.2	> 100	75		1.35	82.9
COc1ccccc1NC(=O)CC(=O)n1nc(C)c(N=Nc2ccccc2F)c1C	> 100	> 93.3	> 100	> 100	> 100	> 100						> 100				> 100				
c1ccc(-c2nc(Nc3ccc(-c4nc5ccccc5[nH]4)cc3)nc(N3CCOCC3)n2)cc1	3.13	3.24	2.62	3.08	3.42		1.29	3.48	1.62	3.82	2.1	3.92	1.41	1.64	1.72	3.41	1.59		1.09	1.68
CCCOc1ccc(/C=C\c2cc(OC)c(OC)c(OC)c2)cc1	> 100	> 100	> 100	> 100	> 100	> 100						> 100				> 100				
N#CCCc1nc2ccc(Br)cc2c(=O)n1-c1ccc(O)c([N+](=O)[O-])c1	47.9	63.1	> 100	38.8	74.3	35.5						31.8				> 100				
COC(=O)c1c/c(=N\NC(=O)CC(=O)Nc2ccccc2Cl)c2ccccc2o1	> 100	> 100		> 100	> 100	> 100						> 100				> 100				
CCCCCCCCCCCCCCCCC(C(=O)O)C(O)(CC(=O)O)C(=O)O (centres undefined)	35	70.3	47.6		39.3	66.3		75.8								> 100				
COc1ccc(C2CC(=O)Nc3c2c(C)nn3-c2nc3ccccc3[nH]2)cc1 (centres undefined)	14.7	97.7	5.46	> 59.1			2.25	5.3	3.92	> 41.9	2.67	7.15	3.59	3.86	3.76	> 100			1.89	3.71
COc1ccc(Cl)cc1N1C(=O)C(Cl)=C(Nc2cccc(O)c2)C1=O	57.1	30.7		40	> 100	32.8			22.6	> 100	6.48	20.1	21.6	13.2	15.1	31.2	32.8	15.8		16.7
CCCCCCCCCCCCCCCC(=O)NC1CCc2cc(O)c(O)c(O)c2-c2ccc(SC)c(=O)cc21 (centres undefined)	16.9	23	39.5	28.9	39.7	24.8						14.6				28.8				
CC1C(=O)N=C2C(=CN(Cc3ccccc3)c3ccccc32)C(=O)N1C (centres undefined)	> 100	> 100	> 100	> 100				> 100		> 100		> 100				> 100				
Cc1c(C(=O)/C=C/c2ccc(O)cc2)nnn1-c1ccnc2c(C(F)(F)F)cccc12	34.8	71.8	> 100		> 100	> 100	21.7	> 100	5.53	> 100	6.2	> 100	5.68	4.08	10	> 100	39	6.41	51	
O=[N+]([O-])c1ccc(Cc2nc3ccccc3s2)cc1	> 100	> 100	> 100	> 100	> 100							> 100				> 100				
C=CCOc1cc2c(cc1C(C)c1ccc(OC)cc1)OCO2 (centres undefined)		> 74.3	> 100	> 100	> 100	> 83.9		> 100				0.541				5.97				
